Source: PubChem BioAssay AID1259407 (Chemical Carcinogenesis Research Information System (CCRIS), 2018)
The source made the active and inactive calls. No rule for the calls is given here.

System: CCRIS mutagenicity, Ames/micronucleus/aberration tests
Assay: CCRIS mutagenicity studies
[1] = Test System: AMES SALMONELLA TYPHIMURIUM, Strain/Indicator: TA98, Metabolic Activation: NONE, Method: STANDARD PLATE
[2] = Test System: AMES SALMONELLA TYPHIMURIUM, Strain/Indicator: TA98, Metabolic Activation: RAT, LIVER, S-9, AROCLOR 1254, Method: STANDARD PLATE
[3] = Test System: AMES SALMONELLA TYPHIMURIUM, Strain/Indicator: TA100, Metabolic Activation: NONE, Method: STANDARD PLATE
[4] = Test System: AMES SALMONELLA TYPHIMURIUM, Strain/Indicator: TA100, Metabolic Activation: RAT, LIVER, S-9, AROCLOR 1254, Method: STANDARD PLATE
[5] = Test System: AMES SALMONELLA TYPHIMURIUM, Strain/Indicator: TA1535, Metabolic Activation: NONE, Method: STANDARD PLATE
[6] = Test System: AMES SALMONELLA TYPHIMURIUM, Strain/Indicator: TA1535, Metabolic Activation: RAT, LIVER, S-9, AROCLOR 1254, Method: STANDARD PLATE
[7] = Test System: AMES SALMONELLA TYPHIMURIUM, Strain/Indicator: TA1537, Metabolic Activation: NONE, Method: STANDARD PLATE
[8] = Test System: AMES SALMONELLA TYPHIMURIUM, Strain/Indicator: TA1537, Metabolic Activation: RAT, LIVER, S-9, AROCLOR 1254, Method: STANDARD PLATE
[9] = Test System: E. COLI, Strain/Indicator: WP2 UVRA, Metabolic Activation: NONE, Method: STANDARD PLATE
[10] = Test System: AMES SALMONELLA TYPHIMURIUM, Strain/Indicator: TA98, Metabolic Activation: NONE, Method: PREINCUBATION
[11] = Test System: AMES SALMONELLA TYPHIMURIUM, Strain/Indicator: TA100, Metabolic Activation: NONE, Method: PREINCUBATION

For `CCc1cccc2c3c([nH]c12)C(CC)(CC(=O)O)OCC3` (centres undefined), the mutagenic call [1] was “inactive; negative”, the mutagenic call [2] was “inactive; negative” and the mutagenic call [3] was “inactive; negative”. For the same molecule, the mutagenic call [4] was “inactive; negative”, the mutagenic call [5] was “inactive; negative” and the mutagenic call [6] was “inactive; negative”. The mutagenic call [7] was “inactive; negative”, the mutagenic call [8] was “inactive; negative” and the mutagenic call [9] was “inactive; negative”. The mutagenic call (Test System: E. COLI, Strain/Indicator: WP2 UVRA, Metabolic Activation: RAT, LIVER, S-9, AROCLOR 1254, Method: STANDARD PLATE) was “inactive; negative”.
For `O=Cc1ccc(Cl)c(Cl)c1`, the mutagenic call (Test System: AMES SALMONELLA TYPHIMURIUM, Strain/Indicator: TA97, Metabolic Activation: HAMSTER, LIVER, S-9, AROCLOR 1254 (10%), Method: PREINCUBATION) was “inactive; negative”, the mutagenic call (Test System: AMES SALMONELLA TYPHIMURIUM, Strain/Indicator: TA97, Metabolic Activation: HAMSTER, LIVER, S-9, AROCLOR 1254 (30%), Method: PREINCUBATION) was “inactive; negative” and the mutagenic call (Test System: AMES SALMONELLA TYPHIMURIUM, Strain/Indicator: TA97, Metabolic Activation: NONE, Method: PREINCUBATION) was “inactive; negative”. For the same molecule, the mutagenic call (Test System: AMES SALMONELLA TYPHIMURIUM, Strain/Indicator: TA97, Metabolic Activation: RAT, LIVER, S-9, AROCLOR 1254 (10%), Method: PREINCUBATION) was “inactive; negative”, the mutagenic call (Test System: AMES SALMONELLA TYPHIMURIUM, Strain/Indicator: TA97, Metabolic Activation: RAT, LIVER, S-9, AROCLOR 1254 (30%), Method: PREINCUBATION) was “inactive; negative” and the mutagenic call (Test System: AMES SALMONELLA TYPHIMURIUM, Strain/Indicator: TA98, Metabolic Activation: HAMSTER, LIVER, S-9, AROCLOR 1254 (10%), Method: PREINCUBATION) was “inactive; negative”. For the same molecule, the mutagenic call (Test System: AMES SALMONELLA TYPHIMURIUM, Strain/Indicator: TA98, Metabolic Activation: HAMSTER, LIVER, S-9, AROCLOR 1254 (30%), Method: PREINCUBATION) was “inactive; negative”, the mutagenic call [10] was “inactive; negative” and the mutagenic call (Test System: AMES SALMONELLA TYPHIMURIUM, Strain/Indicator: TA98, Metabolic Activation: RAT, LIVER, S-9, AROCLOR 1254 (10%), Method: PREINCUBATION) was “inactive; negative”. The mutagenic call (Test System: AMES SALMONELLA TYPHIMURIUM, Strain/Indicator: TA98, Metabolic Activation: RAT, LIVER, S-9, AROCLOR 1254 (30%), Method: PREINCUBATION) was “inactive; negative”, the mutagenic call (Test System: AMES SALMONELLA TYPHIMURIUM, Strain/Indicator: TA100, Metabolic Activation: HAMSTER, LIVER, S-9, AROCLOR 1254 (10%), Method: PREINCUBATION) was “inactive; negative” and the mutagenic call (Test System: AMES SALMONELLA TYPHIMURIUM, Strain/Indicator: TA100, Metabolic Activation: HAMSTER, LIVER, S-9, AROCLOR 1254 (30%), Method: PREINCUBATION) was “inactive; negative”. For the same molecule, the mutagenic call [11] was “inactive; negative”, the mutagenic call (Test System: AMES SALMONELLA TYPHIMURIUM, Strain/Indicator: TA100, Metabolic Activation: RAT, LIVER, S-9, AROCLOR 1254 (10%), Method: PREINCUBATION) was “inactive; negative” and the mutagenic call (Test System: AMES SALMONELLA TYPHIMURIUM, Strain/Indicator: TA100, Metabolic Activation: RAT, LIVER, S-9, AROCLOR 1254 (30%), Method: PREINCUBATION) was “inactive; negative”. For the same molecule, the mutagenic call (Test System: AMES SALMONELLA TYPHIMURIUM, Strain/Indicator: TA104, Metabolic Activation: HAMSTER, LIVER, S-9, AROCLOR 1254 (10%), Method: PREINCUBATION) was “inactive; negative”, the mutagenic call (Test System: AMES SALMONELLA TYPHIMURIUM, Strain/Indicator: TA104, Metabolic Activation: HAMSTER, LIVER, S-9, AROCLOR 1254 (30%), Method: PREINCUBATION) was “inactive; negative” and the mutagenic call (Test System: AMES SALMONELLA TYPHIMURIUM, Strain/Indicator: TA104, Metabolic Activation: NONE, Method: PREINCUBATION) was “inactive; negative”. The mutagenic call (Test System: AMES SALMONELLA TYPHIMURIUM, Strain/Indicator: TA104, Metabolic Activation: RAT, LIVER, S-9, AROCLOR 1254 (10%), Method: PREINCUBATION) was “inactive; negative”, the mutagenic call (Test System: AMES SALMONELLA TYPHIMURIUM, Strain/Indicator: TA104, Metabolic Activation: RAT, LIVER, S-9, AROCLOR 1254 (30%), Method: PREINCUBATION) was “inactive; negative” and the mutagenic call (Test System: AMES SALMONELLA TYPHIMURIUM, Strain/Indicator: TA1535, Metabolic Activation: HAMSTER, LIVER, S-9, AROCLOR 1254 (10%), Method: PREINCUBATION) was “inactive; negative”. For the same molecule, the mutagenic call (Test System: AMES SALMONELLA TYPHIMURIUM, Strain/Indicator: TA1535, Metabolic Activation: HAMSTER, LIVER, S-9, AROCLOR 1254 (30%), Method: PREINCUBATION) was “inactive; negative”, the mutagenic call (Test System: AMES SALMONELLA TYPHIMURIUM, Strain/Indicator: TA1535, Metabolic Activation: NONE, Method: PREINCUBATION) was “inactive; negative” and the mutagenic call (Test System: AMES SALMONELLA TYPHIMURIUM, Strain/Indicator: TA1535, Metabolic Activation: RAT, LIVER, S-9, AROCLOR 1254 (10%), Method: PREINCUBATION) was “inactive; negative”. The mutagenic call (Test System: AMES SALMONELLA TYPHIMURIUM, Strain/Indicator: TA1535, Metabolic Activation: RAT, LIVER, S-9, AROCLOR 1254 (30%), Method: PREINCUBATION) was “inactive; negative”.
In the case of `Nc1cccc([N+](=O)[O-])c1O`, the mutagenic call [1] is reported as “inactive; negative”, the mutagenic call [2] is reported as “inactive; negative” and the mutagenic call [3] is reported as “inactive; negative”. For the same molecule, the mutagenic call [4] was “inactive; negative”, the mutagenic call [5] was “inactive; negative” and the mutagenic call [6] was “inactive; negative”. For the same molecule, the mutagenic call [7] was “inactive; negative”, the mutagenic call [8] was “inactive; negative” and the mutagenic call (Test System: AMES SALMONELLA TYPHIMURIUM, Strain/Indicator: TA1538, Metabolic Activation: NONE, Method: STANDARD PLATE) was “inactive; negative”. The mutagenic call (Test System: AMES SALMONELLA TYPHIMURIUM, Strain/Indicator: TA1538, Metabolic Activation: RAT, LIVER, S-9, AROCLOR 1254, Method: STANDARD PLATE) was “inactive; negative”.
For `CC(=O)ON(C(C)=O)c1ccc(Sc2ccccc2)cc1`, the mutagenic call (Test System: AMES SALMONELLA TYPHIMURIUM, Strain/Indicator: TA98(1,8-DNP6), Metabolic Activation: NONE, Method: STANDARD PLATE) was “active; positive”, the mutagenic call [1] was “active; positive” and the mutagenic call [2] was “active; positive”.
With `Cc1cc2ncccc2c2ncn(C)c12` the mutagenic call [10] was “inactive; negative”, the mutagenic call (Test System: AMES SALMONELLA TYPHIMURIUM, Strain/Indicator: TA98, Metabolic Activation: RAT, LIVER, S-9, AROCLOR 1254, Method: PREINCUBATION) was “inactive; negative” and the mutagenic call [11] was “inactive; negative”. The mutagenic call (Test System: AMES SALMONELLA TYPHIMURIUM, Strain/Indicator: TA100, Metabolic Activation: RAT, LIVER, S-9, AROCLOR 1254, Method: PREINCUBATION) was “inactive; negative”.
`O=CN(O)c1ccc(Oc2ccc(Cl)cc2Cl)cc1` was tested, and the mutagenic call [3] was “inactive; negative” and the mutagenic call (Test System: AMES SALMONELLA TYPHIMURIUM, Strain/Indicator: TA100, Metabolic Activation: RAT, LIVER, S-9, KANECLOR 500, Method: STANDARD PLATE) was “active; positive”.
In the case of `CCc1cccc2c(CCO)c[nH]c12`, the mutagenic call [1] is reported as “inactive; negative”, the mutagenic call (Test System: AMES SALMONELLA TYPHIMURIUM, Strain/Indicator: TA98, Metabolic Activation: RAT, LIVER, S-9, Method: STANDARD PLATE) is reported as “inactive; negative” and the mutagenic call [3] is reported as “inactive; negative”. For the same molecule, the mutagenic call (Test System: AMES SALMONELLA TYPHIMURIUM, Strain/Indicator: TA100, Metabolic Activation: RAT, LIVER, S-9, Method: STANDARD PLATE) was “inactive; negative”, the mutagenic call [5] was “inactive; negative” and the mutagenic call (Test System: AMES SALMONELLA TYPHIMURIUM, Strain/Indicator: TA1535, Metabolic Activation: RAT, LIVER, S-9, Method: STANDARD PLATE) was “inactive; negative”. The mutagenic call [7] was “inactive; negative”, the mutagenic call (Test System: AMES SALMONELLA TYPHIMURIUM, Strain/Indicator: TA1537, Metabolic Activation: RAT, LIVER, S-9, Method: STANDARD PLATE) was “inactive; negative” and the mutagenic call [9] was “inactive; negative”. For the same molecule, the mutagenic call (Test System: E. COLI, Strain/Indicator: WP2 UVRA, Metabolic Activation: RAT, LIVER, S-9, Method: STANDARD PLATE) was “inactive; negative”.
